Entries after “also recorded” stand apart in the source; their conditions may differ.
How the values were obtained:
[1] = Body weight measurement once a week during 24 weeks of daily administration; format: in vivo, mouse; set-up: Weight change / Weight change (average): unit not given here; conditions: APPosk mice; for Weight loss after 24 weeks of daily administration: i.p. once daily, 0.9 or 1.8 mg/kg; for Weight change: range
Excerpt: (§1) Sixty-eight APPosk (SPF) male mice were produced according to the method described in Tomiyama T., Nagata T., Shimada H., Teraoka R., Fukushima A., Kanemitsu H., Takuma H., Kuwano R., Imagawa M., Ataka S., Wada Y., Yoshioka E., Nishizaki T., Watanabe Y., Mori H. A new amyloid β variant favoring oligomerization in Alzheimer's-type dementia. Ann. Neurol. 63, 377-387 (2008) at BioSafety Research Center Inc. (BSRC), which has a track record in producing model mice, and were raised until 24 weeks of age. These mice were then delivered to New Drug Research Center, Inc. and acclimatized until the preliminary breeding period. Note that quarantine was carried out from the date of arrival, considered as Day 0, up to Day 7. General observations were made daily, and body weights were measured on Day 1 (the day following the arrival), Day 3, and Day 7 after the arrival. Each individual was placed in a polysulfone cage and kept in an animal breeding room under conditions of a temperature of 22° C.±3° C., a humidity of 50%±20%, and a 12-hour light/dark cycle.
(§2) Of the 16 wild-type mice that arrived, 10 with weights close to the average were selected to form the normal group. Sixty-eight APPosk mice were delivered and assigned by stratified continuous randomization to the following groups: Pathological; Pathological+2ccPA (L); Pathological+2ccPA (H); Pathological+2cLPA (L); and Pathological+2cLPA (H). L: Low dose (0.9 mg/kg); H: High dose (1.8 mg/kg)
(§3) The dosing solution was filled into a syringe (disposable syringe) equipped with a 26G needle, and administered intraperitoneally once daily for 168 days (24 weeks). On the day when the Morris water maze test was performed, the dosing solution was administered after the Morris water maze test.
Body weight was measured using an electronic balance once a week. Each time, the measurement was carried out twice at different times.

[2] = tested on: Alzheimer's dementia model mouse (APPosk); assay: Morris water maze test (escape latency); format: in vivo; conditions: APPosk mice; for Memory improvement effect in the Morris water maze test: i.p. once daily for 168 days (24 weeks), tested at 48 weeks of age; for Memory effect in the Morris water maze test at low dose: low dose 0.9 mg/kg i.p. once daily for 24 weeks
Excerpt: as §1, §2, §3
When the mice reached 12 months of age (48 weeks of age), the Morris water maze test was performed.
The water maze (diameter: 90 cm; height: 60 cm; water temperature: approximately 22° C.) was made opaque with a white non-toxic paint (skim milk) and divided into four virtual quadrants (east, west, north, and south). A circular platform having a diameter of 8 cm was submerged approximately 1 cm below the water surface and placed near the center of the north quadrant. Black markers were placed on the walls of the water maze as extramaze cues.
The time it took to reach the platform placed in the water maze (escape latency) was measured over 4 days. Each animal underwent five consecutive trials, with an interval of approximately 20 seconds between the end and start of each trial.
Each trial began with the mouse being placed in any quadrant except the north quadrant, with its face facing the outer edge of the water maze. A webcam (Logicool HD Webcam C615) and SMART v3.0 (Panlab Harvard Apparatus) were used for measurement and analysis. […]

[3] = tested on: tau protein and phosphorylated tau protein; assay: Quantitative determination of tau protein and phosphorylated tau protein (immunostaining of brain sections); format: in vivo, mouse; conditions: for Suppression of phosphorylation of tau protein: APPosk mice, low dose; for Phosphorylated tau (Ser396) area/Hippocampus area (average) / Phosphorylated tau (Ser404) area/Hippocampus area (average) / Tau protein area/Hippocampus area (average) / Phosphorylated tau (Ser396) area/Hippocampus area / Phosphorylated tau (Ser404) area/Hippocampus area / Tau protein area/Hippocampus area: APPosk-Tg mice, low dose (L) 0.9 mg/kg; for Phosphorylated tau (Ser396) area/Hippocampus area / Phosphorylated tau (Ser404) area/Hippocampus area / Tau protein area/Hippocampus area: range; for Tau protein area/Hippocampus area: five sections
Excerpt: After exsanguination, 6 of the 10 individuals in each group (with numbers ending in 1 to 6) were perfused with phosphate-buffered saline (PBS) and then perfused again with 4% paraformaldehyde (PFA) to fix the brains, after which the brains were removed. The extracted brains were then infiltrated and fixed using the same fixative solution. The remaining four individuals in each group (with numbers ending in 7 to 10) were perfused whole body with PBS, and then their brains were extracted and frozen using liquid nitrogen.
Serial sections (thickness: 40 μm) of fixed mouse […] were prepared using a cryostat. The sections were incubated overnight with primary antibodies and then for 1 hour with secondary antibodies. Stained images were then captured using a confocal microscope (Carl Zeiss) and quantified using NIH ImageJ. The primary antibodies used were non-phosphorylated tau antibody (Invitrogen), phosphorylated tau (Ser396) antibody (Invitrogen), and phosphorylated tau (Ser404) antibody (Invitrogen), and the secondary antibodies used were biotinylated goat anti-mouse IgG antibody (Vector Lab.) and biotinylated goat anti-rabbit IgG antibody (Vector Lab.). Quantitative determination was carried out using five sections each.
Quantitative determination of tau protein and phosphorylated tau protein in the hippocampus of normal, pathological, pathological+2ccPA (low dose), and pathological+2cLPA (low dose) mice

[4] = In vivo hippocampal microdialysis with LC/MS determination of 2ccPA (blood-brain barrier crossing); set-up: species or system mouse; conditions: 0.9 mg/kg i.p.; for 2ccPA concentration in microdialysis recovery fluid: hippocampus
Method: To confirm that 2ccPA crosses the blood-brain barrier (BBB) and enters the brain, an experiment was conducted at the Kurume Modality Analysis Laboratory of BioSafety Research Center Inc. (BSRC), which has a long track record in microdialysis, and the Institute for Disease Modeling, Kurume University School of Medicine.
2ccPA was administered intraperitoneally to 33-week-old male C57BL/6J-Aged mice (SPF, Jackson Laboratory Japan, Inc.) with a dialysis probe (FX-I-4-02, EICOM) placed in the hippocampus of the mouse brain. After that, the brain microdialysis perfusate was collected at […], 1 hour before administration and every 30 minutes (0.5 to 5.0 hours) after administration, using the in vivo microdialysis method.
The hippocampal guide cannula placement surgery was performed under isoflurane anesthesia, with a guide cannula and a dummy cannula placed at the hippocampal coordinate position (AP=−3.1 mm; ML=+2.7 mm; DV=−3.7 mm). After surgery, Vetorphale was administered subcutaneously for analgesia. Three to five days after the cannula was placed, the cannula was replaced with a dialysis probe under isoflurane inhalation anesthesia, and pre-perfusion (perfusion solution: saline containing 0.15% BSA) was then initiated.
2ccPA administration was performed under isoflurane anesthesia. D-PBS(−) containing 0.1% BSA was added to […], and the mixture was dispersed by ultrasonic treatment, thereby preparing a dosing solution.
The dosing solution was diluted with D-PBS(−) containing 0.1% BSA to a concentration of 0.9 mg/kg/day, and then sonicated individually just immediately administration. The administration route was intraperitoneal administration.
The microdialysis perfusate was collected at 11 time points: 1 hour before administration and 0.5, 1.0, 1.5, 2.0, 2.5, 3.0, 3.5, 4.0, 4.5, and 5.0 hours after administration, and each was collected into ice-cooled siliconized tubes.
Five mice in each test group underwent hippocampal cannula placement surgery, replacement with a dialysis probe, administration of the test substance, and collection of the microdialysis perfusate. The collected solution was added to an ice-cold acid-methanol solution (pH 4), stirred, and then promptly frozen in liquid nitrogen and stored at −80° C.
The concentration of 2ccPA in the perfusate collected by microdialysis from mice administered with 2ccPA was measured using LC/MS. The conditions are as follows: Shimizu Y., Fukasawa K., Yamamoto S., Shibike Y., Tsukahara R., Ishikawa M., Iwasa K., Yoshikawa K., Gotoh M., Murakami-Murofushi K. Evaluation of the pharmacokinetics of 2-carba-cyclic phosphatidic acid by liquid chromatography-triple quadrupole mass spectrometry
The standard solution for the calibration curve was prepared by adding ethanol to the standard substance, 2ccPA, dissolving it, and then mixing it with the blank matrix. The internal standard solution (IStd) was prepared by adding ultrapure water to the internal standard substance (ranitidine hydrochloride), dissolving it, and then diluting it with ultrapure water (10 ng/mL). The measurement specimen (microdialysis perfusate) was prepared by adding an acidic methanol solution (pH 4) in an amount five times the volume of the sample.
The measurement samples (the measurement specimen and the standard solution for the calibration curve) were deproteinized by adding a specimen treatment solution containing the internal standard solution to each sample. After centrifugation, the supernatant was filtered, and the 2ccPA concentration was measured using a Q Exactive Ultimate 3000 system (Thermo Scientific), thereby yielding the following results.

[5] = high dose (H) 1.8 mg/kg i.p. once daily for 24 weeks
[6] = low dose (L) 0.9 mg/kg i.p. once daily for 24 weeks

Row | Compound | Weight loss after 24 weeks of daily administration [1] | Weight change (average) [1, 5] | Weight change (average) [1, 6] | Weight change [1, 5] | Weight change [1, 6] | Memory improvement effect in the Morris water maze test [2] | Suppression of phosphorylation of tau protein [3] | Phosphorylated tau (Ser396) area/Hippocampus area (average) [3] | Phosphorylated tau (Ser404) area/Hippocampus area (average) [3] | Tau protein area/Hippocampus area (average) [3] | Phosphorylated tau (Ser396) area/Hippocampus area [3] | Phosphorylated tau (Ser404) area/Hippocampus area [3] | Tau protein area/Hippocampus area [3] | further results
1 | CCCCCCCCC=CCCCCCCCC(=O)OCC1COP(=O)(O)C1 (stereo not shown) [2ccPA, oleoyl-2-carba-cPA] | No weight loss was observed | 32.1 | 32.3 | 30.6-32.8 | 31.4-33.6 | significantly improved memory; also recorded: significantly improve memory decline | significantly suppress the phosphorylation of tau protein | (2.3) % | (0.5) % | (17.4) % | 2.0-4.9% | 0.4-1.7% | 7.7-19.5% | Memory effect in the Morris water maze test at low dose ([2]; 0.9 mg/kg): memory maintenance effect comparable to that of the normal group; also recorded: clear effects; 2ccPA concentration in microdialysis recovery fluid ([4]; 0.5 hours after administration): 1.90 ng/mL; 2ccPA concentration in microdialysis recovery fluid ([4]; 1.0 hours after administration): 2.22 ng/mL; 2ccPA concentration in microdialysis recovery fluid ([4]; 1.5 hours after administration): 2.81 ng/mL; 2ccPA concentration in microdialysis recovery fluid ([4]; 2.0 hours after administration): 2.24 ng/mL; 2ccPA concentration in microdialysis recovery fluid ([4]; 2.5 hours after administration): 1.64 ng/mL; 2ccPA concentration in microdialysis recovery fluid ([4]; 3.0 hours after administration): 1.80 ng/mL; 2ccPA concentration in microdialysis recovery fluid ([4]; 3.5 hours after administration): 2.32 ng/mL; 2ccPA concentration in microdialysis recovery fluid ([4]; 4.0 hours after administration): 2.12 ng/mL; 2ccPA concentration in microdialysis recovery fluid ([4]; 4.5 hours after administration): 2.12 ng/mL; 2ccPA concentration in microdialysis recovery fluid ([4]; 5.0 hours after administration): 1.22 ng/mL; Crossing of the blood-brain barrier ([4]; mice, hippocampal microdialysis): passed through the barrier of endothelial cells that line the walls of brain capillaries; 2ccPA concentration in microdialysis recovery fluid ([4]; time 0 (before administration), C57BL/6J-Aged mice): 0 ng/mL
2 | oleoyl-2-carba-LPA [2cLPA] | No weight loss was observed | 30.2 | 32.0 | 29.6-31.9 | 30.8-33.3 | significantly improved memory; also recorded: significantly improve memory decline | significantly suppress the phosphorylation of tau protein | (2.4) % | (1.2) % | (19.0) % | 0.5-4.7% | 0.9-1.8% | 10.6-36.2% | Memory effect in the Morris water maze test at low dose [2]: clear effects

— patent US20260240880A1, “AGENT FOR AMELIORATING OR TREATING DEMENTIA, PRIMARILY ALZHEIMER'S DEMENTIA” (HOMO C[…] AND DEVELOPMENT INSTITUTE, priority 2023, published 2026)
